Where a name gives a salt, the structure may show the parent alone.
Target: T1, rh beta tryptase (Homo sapiens, UniProt Q15661)
T1 construct: purchased Promega
Test: tryptase inhibition test (cleavage of N-p-tosyl-Gly-Pro-Lys-para-nitroaniline, p-nitroaniline measured at 405 nm)
Format: biochemical
Conditions: Tris HCl buffer pH 7.4 with calcium and heparin; substrate 0.6 mM; 5 minutes' pre-incubation, 5 minutes incubation at 37° C.
Procedure: The compounds according to the invention are characterised by their tryptase-inhibiting activity. This ability to inhibit tryptase was investigated using the test described as follows. The measurement is carried out in Tris HCl buffer (100 mM), which additionally contains calcium (5 mM) and heparin ([…]), at pH 7.4. The standard used is rh beta tryptase which may be obtained commercially from Promega, for example. The substrate used is N-p-tosyl-Gly-Pro-Lys-para-nitroaniline in a concentration of 0.6 mM. The substrate is digested with tryptase to form p-nitroaniline which can be measured at 405 nm. Usually, an incubation period of 5 minutes and an incubation temperature of 37° C. are chosen. The enzyme activity used is 0.91 U/ml. The measurements are carried out in an Autoanalyser (Cobas Bio) made by Hofmann LaRoche. The potential inhibitory substances are used in concentrations of 10 μM in the screening, the inhibition of the tryptase being given in percent. The IC50 is determined at over 70% inhibition (concentration at which 50% of the enzyme activity is inhibited). After 5 minutes' pre-incubation of the potential inhibitory substances, the substrate is added to start the reaction, the formation of p-nitroaniline being taken as a measurement of the enzyme activity after 5 minutes, after testing the linearity.

T1 sequence (Q15661 31-275): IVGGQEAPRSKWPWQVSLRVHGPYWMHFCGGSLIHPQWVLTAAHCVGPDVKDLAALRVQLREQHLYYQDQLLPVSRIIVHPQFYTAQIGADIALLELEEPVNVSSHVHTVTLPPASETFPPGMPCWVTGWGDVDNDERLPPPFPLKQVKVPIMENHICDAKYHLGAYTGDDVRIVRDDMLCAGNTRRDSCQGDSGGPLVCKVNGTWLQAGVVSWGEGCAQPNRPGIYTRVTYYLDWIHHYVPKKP

SMILES	IC50 [nM]
Cn1c(CCc2ccc(C(=N)N)cc2)nc2cc(N(Cc3cccc4ccccc34)C(=O)CNCc3cccc(C(=N)N)c3)ccc21 [Example 46, N-{2-[2-(4-Amidinophenyl)-ethyl]-1-methyl-benzimidazol-5-yl}-N-( - naphthylmethyl)-[2-(3-amidinobenzylamino)-acetamide]-trihydrochloride]	27
CCOC(=O)C1CCN(CC(=O)N(Cc2cccc3ccccc23)c2ccc3c(c2)nc(CCc2ccc(C(=N)N)cc2)n3C)CC1 [Example 71, N-{2-[2-(4-Amidinophenyl)-ethyl]-1-methyl-benzimidazol-5-yl}-N-( - naphthylmethyl)-[2-(4-ethylcarboxylate-4-piperidin-1-yl)-acetamide]-dihydrochloride]	15.9
Cn1c(CCc2ccc(C(=N)N)cc2)nc2cc(N(Cc3ccc4ccccc4c3)C(=O)CCc3ccc(C(=N)N)cc3)ccc21 [Example 9, N-{2-[2-(4-Amidinophenyl)-ethyl]-1- -methy-benzimidazol-5-yl}-N-β-naphthylmethyl-[3-(4-amidinophenyl)-propionamide]-dihydrochloride]	24
CN(C)CCCNCC(=O)N(Cc1cccc2ccccc12)c1ccc2c(c1)nc(CCc1ccc(C(=N)N)cc1)n2C [Example 78, N-{2-[2-(4-Amidinophenyl)-ethyl]-1-methyl-benzimidazol-5-yl}-N-(α-naphthylmethyl)-[2-(N-(3-dimethylaminopropyl)-amino)-acetamide]-trihydrochloride]	21.3
Cn1c(CCc2ccc(C(=N)N)cc2)nc2cc(N(Cc3ccccc3)C(=O)CCCCN)ccc21 [Example 32, N-{2-[2-(4-Amidinophenyl)-ethyl]-1-methyl-benzimidazol-5-yl}-N-benzyl-[5-amino-pentanoic acid amide]-dihydrochloride]	57
Cn1c(CCc2ccc(C(=N)N)cc2)nc2cc(N(Cc3cccc4ccccc34)C(=O)Cc3cccc4ccccc34)ccc21 [Example 80, N-{2-[2-(4-Amidinophenyl)-ethyl]-1-methyl-benzimidazol-5-yl}-N-( - naphthylmethyl)-[2-( -naphthyl)-acetamide]-hydrochloride]	30.1
CN(CC(=O)N(Cc1cccc2ccccc12)c1ccc2c(c1)nc(CCc1ccc(C(=N)N)cc1)n2C)Cc1ccc(N2CCCC2)cc1 [Example 83, N-{2-[2-(4-Amidinophenyl)-ethyl]-1-methyl-benzimidazol-5-yl}-N-( - naphthylmethyl)-[2-(N-(4-pyrrolidin-1-ylbenzyl)-N-methylamino)-acetamide]-dihydrochloride]	7.6
Cn1c(CCc2ccc(C(=N)N)cc2)nc2cc(N(Cc3cccc4ccccc34)C(=O)CNCc3ccc(F)cc3)ccc21 [Example 61, N-{2-[2-(4-Amidinophenyl)-ethyl]-1-methyl-benzimidazol-5-yl}-N-( - naphthylmethyl)-[2-(4-fluorobenzylamino)-acetamide]-dihydrochloride]	39
Cn1c(CCc2ccc(C(=N)N)cc2)nc2cc(N(Cc3cccc4ccccc34)C(=O)CCCNC(=N)N)ccc21 [Example 30, N-{2-[2-(4-Amidinophenyl)-ethyl]-1-methyl-benzimidazol-5-yl}-N-( - naphthylmethyl)-[4-guanidino-butanoic acid amide]-dihydrochloride]	32
Cn1c(CCc2ccc(C(=N)N)cc2)nc2cc(N(Cc3ccccc3)C(=O)CCCN)ccc21 [Example 36, N-{2-[2-(4-Amidinophenyl)-ethyl]-1-methyl-benzimidazol-5-yl}-N-benzyl-[4-amino-butanoic acid amide]-dihydrochloride]	70
CN(C(=O)CCc1ccc(C(=N)N)cc1)c1ccc2c(c1)nc(CCc1ccc(C(=N)N)cc1)n2C [Example 1, N-{2-[2-(4-Amidinophenyl)-ethyl]-1-methyl-benzimidazol-5-yl}-N-methyl-[3-(4-amidinophenyl)-propionamide]dihydrochloride]	64
CN(CC(=O)N(Cc1cccc2ccccc12)c1ccc2c(c1)nc(CCc1ccc(C(=N)N)cc1)n2C)Cc1cccc(C(=N)N)c1 [Example 18, N-{2-[2-(4-Amidinophenyl)-ethyl-1-methyl-benzimidazol-5-yl}-N-(- naphthylmethylamino)-N-methyl-N-[3-amidinobenzyl]-acetamide-trihydrochloride]	12
CN(C)CCCC(=O)N(Cc1ccccc1)c1ccc2c(c1)nc(CCc1ccc(C(=N)N)cc1)n2C [Example 37, N-{2-[2-(4-Amidinophenyl)-ethyl]-1-methyl-benzimidazol-5-yl}-N-benzyl-[4-dimethyl-amino-butanoic acid amide]-dihydrochloride]	76
Cn1c(CCc2ccc(C(=N)N)cc2)nc2cc(N(Cc3cccc4ccccc34)C(=O)CN3CCCCC3)ccc21 [Example 81, N-{2-[2-(4-Amidinophenyl)-ethyl]-1-methyl-benzimidazol-5-yl}-N-( - naphthylmethyl)-[2-(piperidin-1-yl)-acetamide]-dihydrochloride]	63.1
Cn1c(CCc2ccc(C(=N)N)cc2)nc2cc(N(Cc3ccc4ccccc4c3)C(=O)CCCc3ccc(N)cc3)ccc21 [Example 55, N-{2-[2-(4-Amidinophenyl)-ethyl]-1-methyl-benzimidazol-5-yl}-N-(β-naphthylmethyl)-[4-(4-aminophenyl)-butyroamide]-dihydrochloride]	172
Cn1c(CCc2ccc(C(=N)N)cc2)nc2cc(N(Cc3cccc4ccccc34)C(=O)CN3CCC(Cc4ccccc4)CC3)ccc21 [Example 70, N-{2-[2-(4-Amidinophenyl)-ethyl]-1-methyl-benzimidazol-5-yl}-N-( - naphthylmethyl)-[2-(4-benzyl-4-piperidin-1-yl)-acetamide]-dihydro-chloride]	3.9
CCOC(=O)c1ccc(CNCC(=O)N(Cc2cccc3ccccc23)c2ccc3c(c2)nc(CCc2ccc(C(=N)N)cc2)n3C)cc1 [Example 65, N-{2-[2-(4-Amidinophenyl)-ethyl]-1-methyl-benzimidazol-5-yl}-N-( - naphthylmethyl)-[2-(4-ethylcarboxylatbenzylamino)-acetamide]-dihydrochloride]	27
COc1ccc(CNCC(=O)N(Cc2cccc3ccccc23)c2ccc3c(c2)nc(CCc2ccc(C(=N)N)cc2)n3C)cc1 [Example 43, N-{2-[2-(4-Amidinophenyl)-ethyl]-1-methyl-benzimidazol-5-yl}-N-(- naphthylmethyl)-[2-(4-methoxybenzylamino)-acetamide]-dihydrochloride]	10
Cn1c(CCc2ccc(C(=N)N)cc2)nc2cc(N(Cc3ccc(N)cc3)C(=O)CNCc3ccc(N)cc3)ccc21 [Example 73, N-{2-[2-(4-Amidinophenyl)-ethyl]-1-methyl-benzimidazol-5-yl}-N-(4-aminobenzyl)-[2-(4-aminobenzylamino)-acetamide]-dihydrochloride]	13.1
Cn1c(CCc2ccc(C(=N)N)cc2)nc2cc(N(Cc3cccc4ccccc34)C(=O)CCCc3ccc([N+](=O)[O-])cc3)ccc21 [Example 42, N-{2-[2-(4-Amidinophenyl)-ethyl]-1-methyl-benzimidazol-5-yl}-N-(α-naphthylmethyl)-[4-(4-nitrophenyl)-butyroamide]-hydrochloride]	11
Cn1c(CCc2ccc(C(=N)N)cc2)nc2cc(N(Cc3cccc4ccccc34)C(=O)CN3CCC[C@H]3C(N)=O)ccc21 [Example 72]	58.4
Cn1c(CCc2ccc(C(=N)N)cc2)nc2cc(N(Cc3cccc4ccccc34)C(=O)CCc3cccc(C(=N)N)c3)ccc21 [Example 19, N-{2-[2-(4-Amidinophenyl)-ethyl]-1-methyl-benzimidazol-5-yl}-N-- naphthylmethyl-[3-(3-amidinophenyl)-propionamide]-dihydrochloride]	16
Cn1c(CCc2ccc(C(=N)N)cc2)nc2cc(N(Cc3ccc4ccccc4c3)C(=O)CCC3CCN(Cc4ccccc4)CC3)ccc21 [Example 50]	72
Cn1c(CCc2ccc(C(=N)N)cc2)nc2cc(N(Cc3ccc4ccccc4c3)C(=O)CNCc3ccc([N+](=O)[O-])cc3)ccc21 [Example 53, N-{2-[2-(4-Amidinophenyl)-ethyl]-1-methyl-benzimidazol-5-yl}-N-(β-naphthylmethyl)-[2-(4-nitrobenzylamino)-acetamide]-hydrochloride]	92
Cn1c(CCc2ccc(C(=N)N)cc2)nc2cc(N(Cc3cccc4ccccc34)C(=O)CO)ccc21 [Example 77, N-{2-[2-(4-Amidinophenyl)-ethyl]-1-methyl-benzimidazol-5-yl}-N-(- naphthylmethyl)-[3-hydroxy-acetamide]-hydrochloride]	110
Cn1c(CCc2ccc(C(=N)N)cc2)nc2cc(N(Cc3ccncc3)C(=O)CNCc3ccc(N)cc3)ccc21 [Example 74, N-{2-[2-(4-Amidinophenyl)-ethyl]-1-methyl-benzimidazol-5-yl}-N-(-pyridin-4-ylmethyl)-[2-(4-aminobenzylamino)-acetamide]-dihydrochloride]	57.4
Cn1c(CCc2ccc(C(=N)N)cc2)nc2cc(N(Cc3cccc4ccccc34)C(=O)CCCCNC(=N)N)ccc21 [Example 27, N-{2-[2-(4-Amidinophenyl)-ethyl]-1-methyl-benzimidazol-5-yl}-N-(- naphthylmethyl)-[5-guanidino-pentanoic acid amide]-dihydrochloride]	26
Cn1c(CCc2ccc(C(=N)N)cc2)nc2cc(N(Cc3ccccc3)C(=O)CCC3CCNCC3)ccc21 [Example 7]	108

Reference: patent publication US6407130B1, “Carboxamide-substituted benzimidazoles having tryptase-inhibiting activity” (Boehringer Ingelheim Pharma KG, priority 1999, dated 2002)
